{"source": "patent US20120107323A1", "about": "“KINASE PROTEIN BINDING INHIBITORS” (University of Florida, priority 2009, published 2012)", "key": {"FAK and IGF-1R": {"biological_target": "T1, FAK and IGF-1R (Homo sapiens, UniProt Q05397)", "T1 construct": "endogenous in cells; host or cells: C8161 (A2) and A375 (A3) melanoma cells", "T1 sequence (Q05397 2-1052 limits assumed)": "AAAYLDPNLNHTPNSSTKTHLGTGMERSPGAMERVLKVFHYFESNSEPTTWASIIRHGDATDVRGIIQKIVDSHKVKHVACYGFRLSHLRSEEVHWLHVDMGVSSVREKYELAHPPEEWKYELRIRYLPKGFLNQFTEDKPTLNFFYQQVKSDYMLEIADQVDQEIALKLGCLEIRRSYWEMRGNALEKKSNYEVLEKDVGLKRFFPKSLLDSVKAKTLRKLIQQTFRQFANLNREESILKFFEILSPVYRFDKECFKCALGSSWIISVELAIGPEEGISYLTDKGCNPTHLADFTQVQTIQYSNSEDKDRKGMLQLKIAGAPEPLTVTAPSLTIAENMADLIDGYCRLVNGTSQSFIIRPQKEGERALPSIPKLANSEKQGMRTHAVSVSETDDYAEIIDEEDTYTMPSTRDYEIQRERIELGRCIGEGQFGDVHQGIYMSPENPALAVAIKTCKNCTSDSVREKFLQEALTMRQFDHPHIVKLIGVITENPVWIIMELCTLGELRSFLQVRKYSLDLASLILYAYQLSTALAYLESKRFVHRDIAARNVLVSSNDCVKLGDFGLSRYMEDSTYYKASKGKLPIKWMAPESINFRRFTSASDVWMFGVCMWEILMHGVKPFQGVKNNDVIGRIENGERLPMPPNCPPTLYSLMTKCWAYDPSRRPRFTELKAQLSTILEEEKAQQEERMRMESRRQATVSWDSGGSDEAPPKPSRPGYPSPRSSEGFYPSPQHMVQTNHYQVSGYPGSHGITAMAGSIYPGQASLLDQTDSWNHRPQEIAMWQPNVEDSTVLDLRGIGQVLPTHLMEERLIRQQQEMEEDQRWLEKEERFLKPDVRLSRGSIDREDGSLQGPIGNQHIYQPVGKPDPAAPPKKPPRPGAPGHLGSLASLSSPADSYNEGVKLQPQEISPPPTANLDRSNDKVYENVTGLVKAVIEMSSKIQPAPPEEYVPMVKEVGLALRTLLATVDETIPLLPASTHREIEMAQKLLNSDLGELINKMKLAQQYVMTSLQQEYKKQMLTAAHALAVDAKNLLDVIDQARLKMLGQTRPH", "assay": "Coimmunoprecipitation of FAK and IGF-1R in C8161 melanoma cells", "type": "cell-based", "conditions": "average IC50, C8161 cells, immunoprecipitation with antibody against FAK; read-out: IC50, disruption of FAK/IGF-1R binding", "description": "Computational Docking The crystal structures of the N-terminal domain of FAK (PDB code 2AL6) (22) and the kinase domain of IGF-1R(PDB 1P40A) (23) were utilized for in silico molecular modeling of their interaction as previously described. The three-dimensional coordinates of compound NSC344553 (INT2-31), obtained from the database of the National Cancer Institute, Developmental Therapeutics Program (NCI/DTP), were docked onto the predicted interface of the amino-terminus of FAK (amino acids 127-243) with the intracytoplasmic portion of IGF-1R (21). […] 100 orientations were created for NSC344553 in the target site and were scored using the computer program grid-based scoring function. […] The intermolecular energies for all configurations of NSC 344553 in binding to FAK-NT2 were calculated as the sum of electrostatic and van der Waals energies. These energy terms were evaluated as correlation functions, which were computed efficiently with Fast Fourier Transforms. […] Bound proteins were boiled in 6× Laemmli buffer and analyzed by SDS-PAGE and Western blotting. […] The intensity of the bands in the western blots was measured with scion image analysis software program. […]"}, "C8161 melanoma cells": {"tested_on": "C8161 melanoma cells", "assay": "Detachment assay, C8161 cells", "type": "cell-based, human", "conditions": "C8161, 5 μM, 72 h", "experimental": "In detachment assays, detached and attached cells were harvested separately and counted in a hemocytometer. The percentage of detachment was calculated by dividing the number of detached cells by the total number of cells.\nDetachment assay: Cells were plated with and without compound for 24, 48, and 72 h, and detached and attached cells were counted in a hemocytometer. The percent of detachment was calculated by dividing the number of detached cells by the total number of cells and experiments performed in triplicate. Apoptosis assays: After treatment, attached and detached cells were collected, counted and prepared for terminal uridine deoxynucleotidyl transferase (TUNEL) assay by utilizing an APO-BRDU kit (BD Pharmingen, San Diego, Calif.) and cells analyzed with a FACSCalibur cytometer (Becton Dickinson, San Jose, Calif.). In addition, apoptotic cells were analyzed with Hoechst 33342 staining (1 μg/ml). The percent of apoptotic cells was calculated as the ratio of apoptotic cells to total number of cells."}}, "note": "pIC50: −log10 of the molar value.", "data": [{"smiles": "CSc1ncnc2c1ccn2C1O[C@H](COP(=O)(O)O)[C@@H](O)[C@H]1O", "note": "(stereo partly drawn) [INT2-31, 4-(Methylthio)-7-(5-O-phosphono-D-ribofuranosyl)-{7H-Pyrrolo[2,3-d]pyrimidine}]", "values": [{"measurement": "pIC50", "setting": "FAK and IGF-1R", "result": 5.57}, {"measurement": "cells detached from the plate", "setting": "C8161 melanoma cells", "result": 7, "unit": "%"}]}]}
